According to patent US20220081412A1, “QUINOLINYL-PYRAZINE-CARBOXAMIDE COMPOUNDS AND USES THEREOF” (The Regents of the University of Michigan, priority 2018, published 2022):

Tested on: MIA PaCa-2 cells
Test: Bru-seq analysis for nascent RNA synthesis (log2FC of genes, GSEA gene sets)
Assay type: cell-based, human
Conditions: downregulated gene sets, 4 h, MIA PaCa-2 cells

Structure (SMILES): CCN(CC)CCCC(C)Nc1cnc(C(=O)Nc2cc(C)cc3cccnc23)cn1 (stereo not drawn) [J4, 5-((5-(diethylamino)pentan-2-yl)amino)-N-(6-methylquinolin-8-yl)pyrazine-2-carboxamide]
- NES TURASHVILI_BREAST_LOBULAR_CARCINOMA_VS_DUCTAL_NORMAL_DN (C2): −1.603
- NES ZHANG_TLX_TARGETS_36HR_DN (C2): −2.309
- NES ZHANG_TLX_TARGETS_DN (C2): −1.942
- NES ZHENG_FOXP3_TARGETS_IN_T_LYMPHOCYTE_DN (C2): −1.893
- ES GO_BASAL_PART_OF_CELL (GO): −0.526
- ES GO_CELL_SURFACE_RECEPTOR_SIGNALING_PATHWAY_INVOLVED_IN_CELL_CELL_SIGNALING (GO): −0.570
- ES GO_CILIUM_ORGANIZATION (GO): −0.331
- ES GO_CYTOKINE_RECEPTOR_ACTIVITY (GO): −0.488
- ES GO_DENDRITIC_SHAFT (GO): −0.568
- ES GO_DNA_DEPENDENT_ATPASE_ACTIVITY (GO): −0.369
- ES GO_DNA_DEPENDENT_DNA_REPLICATION_MAINTENANCE_OF_FIDELITY (GO): −0.569
- ES GO_DNA_DOUBLE_STRAND_BREAK_PROCESSING (GO): −0.551
- ES GO_DNA_HELICASE_ACTIVITY (GO): −0.389
- ES GO_DNA_REPAIR_COMPLEX (GO): −0.429
- ES GO_GLUTAMINE_METABOLIC_PROCESS (GO): −0.569
- ES GO_G_PROTEIN_COUPLED_RECEPTOR_ACTIVITY (GO): −0.476
- ES GO_HOMOPHILIC_CELL_ADHESION_VIA_PLASMA_MEMBRANE_ADHESION_MOLECULES (GO): −0.581
- ES GO_MITOTIC_RECOMBINATION (GO): −0.420
- ES GO_NEGATIVE_REGULATION_OF_EPITHELIAL_CELL_DIFFERENTIATION (GO): −0.597
- ES GO_PHOSPHOLIPID_TRANSPORTER_ACTIVITY (GO): −0.549
- ES GO_POTASSIUM_CHANNEL_COMPLEX (GO): −0.536
- ES GO_RECIPROCAL_DNA_RECOMBINATION (GO): −0.450
- ES GO_RECOMBINATIONAL_REPAIR (GO): −0.382
- ES GO_REGULATION_OF_ACUTE_INFLAMMATORY_RESPONSE (GO): −0.521
- ES GO_REGULATION_OF_MEMBRANE_LIPID_DISTRIBUTION (GO): −0.521
- ES GO_RESPONSE_TO_X_RAY (GO): −0.501
- ES GO_SOMATIC_RECOMBINATION_OF_IMMUNOGLOBULIN_GENE_SEGMENTS (GO): −0.498
- ES GO_SOMITE_DEVELOPMENT (GO): −0.451
- ES GO_STRAND_DISPLACEMENT (GO): −0.471
- NES GO_BASAL_PART_OF_CELL (GO): −1.629
- NES GO_CELL_SURFACE_RECEPTOR_SIGNALING_PATHWAY_INVOLVED_IN_CELL_CELL_SIGNALING (GO): −1.653
- NES GO_CILIUM_ORGANIZATION (GO): −1.502
- NES GO_CYTOKINE_RECEPTOR_ACTIVITY (GO): −1.467
- NES GO_DENDRITIC_SHAFT (GO): −1.746
- NES GO_DNA_DEPENDENT_ATPASE_ACTIVITY (GO): −1.545
- NES GO_DNA_DEPENDENT_DNA_REPLICATION_MAINTENANCE_OF_FIDELITY (GO): −1.697
- NES GO_DNA_DOUBLE_STRAND_BREAK_PROCESSING (GO): −1.613
- NES GO_DNA_HELICASE_ACTIVITY (GO): −1.504
- NES GO_DNA_REPAIR_COMPLEX (GO): −1.586
- NES GO_GLUTAMINE_METABOLIC_PROCESS (GO): −1.616
- NES GO_G_PROTEIN_COUPLED_RECEPTOR_ACTIVITY (GO): −1.804
- NES GO_HOMOPHILIC_CELL_ADHESION_VIA_PLASMA_MEMBRANE_ADHESION_MOLECULES (GO): −1.691
- NES GO_MITOTIC_RECOMBINATION (GO): −1.547
- NES GO_NEGATIVE_REGULATION_OF_EPITHELIAL_CELL_DIFFERENTIATION (GO): −1.799
- NES GO_PHOSPHOLIPID_TRANSPORTER_ACTIVITY (GO): −1.692
- NES GO_POTASSIUM_CHANNEL_COMPLEX (GO): −1.693
- NES GO_RECIPROCAL_DNA_RECOMBINATION (GO): −1.485
- NES GO_RECOMBINATIONAL_REPAIR (GO): −1.548
- NES GO_REGULATION_OF_ACUTE_INFLAMMATORY_RESPONSE (GO): −1.555
- NES GO_REGULATION_OF_MEMBRANE_LIPID_DISTRIBUTION (GO): −1.498
- NES GO_RESPONSE_TO_X_RAY (GO): −1.636
- NES GO_SOMATIC_RECOMBINATION_OF_IMMUNOGLOBULIN_GENE_SEGMENTS (GO): −1.483
- NES GO_SOMITE_DEVELOPMENT (GO): −1.594
- NES GO_STRAND_DISPLACEMENT (GO): −1.493
- ES HALLMARK_KRAS_SIGNALING_DN (HALLMARK): −0.282
- ES HALLMARK_KRAS_SIGNALING_UP (HALLMARK): −0.230
- ES HALLMARK_MYC_TARGETS_V1 (HALLMARK): −0.172
- ES HALLMARK_MYC_TARGETS_V2 (HALLMARK): −0.178
- ES HALLMARK_TGF_BETA_SIGNALING (HALLMARK): −0.324
- NES HALLMARK_KRAS_SIGNALING_DN (HALLMARK): −0.992
- NES HALLMARK_KRAS_SIGNALING_UP (HALLMARK): −0.965
- NES HALLMARK_MYC_TARGETS_V1 (HALLMARK): −0.831
- NES HALLMARK_MYC_TARGETS_V2 (HALLMARK): −0.691
- NES HALLMARK_TGF_BETA_SIGNALING (HALLMARK): −1.256
- ES KEGG_ABC_TRANSPORTERS (KEGG): −0.412
- ES KEGG_ADHERENS_JUNCTION (KEGG): −0.158
- ES KEGG_ALANINE_ASPARTATE_AND_GLUTAMATE_METABOLISM (KEGG): −0.250
- ES KEGG_AMYOTROPHIC_LATERAL_SCLEROSIS_ALS (KEGG): −0.247
- ES KEGG_AXON_GUIDANCE (KEGG): −0.201
- ES KEGG_CALCIUM_SIGNALING_PATHWAY (KEGG): −0.324
- ES KEGG_CELL_ADHESION_MOLECULES_CAMS (KEGG): −0.231
- ES KEGG_CYTOSOLIC_DNA_SENSING_PATHWAY (KEGG): −0.247
- ES KEGG_DNA_REPLICATION (KEGG): −0.254
- ES KEGG_ECM_RECEPTOR_INTERACTION (KEGG): −0.201
- ES KEGG_HEDGEHOG_SIGNALING_PATHWAY (KEGG): −0.329
- ES KEGG_HOMOLOGOUS_RECOMBINATION (KEGG): −0.260
- ES KEGG_MISMATCH_REPAIR (KEGG): −0.375
- ES KEGG_NEUROACTIVE_LIGAND_RECEPTOR_INTERACTION (KEGG): −0.624
- ES KEGG_NUCLEOTIDE_EXCISION_REPAIR (KEGG): −0.241
- ES KEGG_PATHOGENIC_ESCHERICHIA_COLI_INFECTION (KEGG): −0.220
- ES KEGG_PURINE_METABOLISM (KEGG): −0.285
- ES KEGG_PYRIMIDINE_METABOLISM (KEGG): −0.256
- ES KEGG_RIG_I_LIKE_RECEPTOR_SIGNALING_PATHWAY (KEGG): −0.197
- ES KEGG_RNA_POLYMERASE (KEGG): −0.202
- ES KEGG_STARCH_AND_SUCROSE_METABOLISM (KEGG): −0.342
- ES KEGG_TGF_BETA_SIGNALING_PATHWAY (KEGG): −0.336
- ES KEGG_WNT_SIGNALING_PATHWAY (KEGG): −0.231
- NES KEGG_ABC_TRANSPORTERS (KEGG): −1.220
- NES KEGG_ADHERENS_JUNCTION (KEGG): −0.628
- NES KEGG_ALANINE_ASPARTATE_AND_GLUTAMATE_METABOLISM (KEGG): −0.732
- NES KEGG_AMYOTROPHIC_LATERAL_SCLEROSIS_ALS (KEGG): −0.838
- NES KEGG_AXON_GUIDANCE (KEGG): −0.829
- NES KEGG_CALCIUM_SIGNALING_PATHWAY (KEGG): −1.264
- NES KEGG_CELL_ADHESION_MOLECULES_CAMS (KEGG): −0.738
- NES KEGG_CYTOSOLIC_DNA_SENSING_PATHWAY (KEGG): −0.784
- NES KEGG_DNA_REPLICATION (KEGG): −0.912
- NES KEGG_ECM_RECEPTOR_INTERACTION (KEGG): −0.655
- NES KEGG_HEDGEHOG_SIGNALING_PATHWAY (KEGG): −0.982
- NES KEGG_HOMOLOGOUS_RECOMBINATION (KEGG): −0.820
- NES KEGG_MISMATCH_REPAIR (KEGG): −1.179
- NES KEGG_NEUROACTIVE_LIGAND_RECEPTOR_INTERACTION (KEGG): −1.955
- NES KEGG_NUCLEOTIDE_EXCISION_REPAIR (KEGG): −0.899
- NES KEGG_PATHOGENIC_ESCHERICHIA_COLI_INFECTION (KEGG): −0.782
- NES KEGG_PURINE_METABOLISM (KEGG): −1.277
- NES KEGG_PYRIMIDINE_METABOLISM (KEGG): −1.109
- NES KEGG_RIG_I_LIKE_RECEPTOR_SIGNALING_PATHWAY (KEGG): −0.724
- NES KEGG_RNA_POLYMERASE (KEGG): −0.669
- NES KEGG_STARCH_AND_SUCROSE_METABOLISM (KEGG): −1.006
- NES KEGG_TGF_BETA_SIGNALING_PATHWAY (KEGG): −1.284
- NES KEGG_WNT_SIGNALING_PATHWAY (KEGG): −0.992
- ES BRN2_01 (TFBT): −0.247
- ES CDPCR1_01 (TFBT): −0.259
- ES CDP_01 (TFBT): −0.301
- ES EN1_01 (TFBT): −0.276
- ES FOXJ2_02 (TFBT): −0.261
- ES GGCKCATGS_UNKNOWN (TFBT): −0.441
- ES HMEF2_Q6 (TFBT): −0.266
- ES HNF1_Q6 (TFBT): −0.266
- ES HOX13_01 (TFBT): −0.366
- ES IK1_01 (TFBT): −0.227
- ES IRF2_01 (TFBT): −0.324
- ES MEF2_02 (TFBT): −0.225
- ES MEF2_Q6_01 (TFBT): −0.220
- ES MEIS1BHOXA9_01 (TFBT): −0.320
- ES NKX3A_01 (TFBT): −0.267
- ES PAX8_01 (TFBT): −0.439
